Legend:
[1] = tested on: YT (IL-2 2.5 ng/mL); assay: percent inhibition of viability; higher = more inhibition; settings: 72 h
[2] = tested on: NK-YS (IL-2 2.5 ng/mL); assay: as above; settings: 72 h
[3] = tested on: KHYG-1 (IL-2 2.5 ng/mL); assay: as above; settings: 72 h
[4] = tested on: KAI3 (IL-2 2.5 ng/mL); assay: as above; settings: 72 h
[5] = tested on: normal primary NK cells, pool 3 (3 donors) (IL-2 2.5 ng/mL); assay: as above; settings: 72 h
[6] = tested on: NK-92 (IL-2 2.5 ng/mL); assay: as above; settings: 72 h
[7] = tested on: SNK-6 (IL-2 2.5 ng/mL); assay: as above; settings: 72 h
[8] = tested on: DERL-7 (IL-2 2.5 ng/mL); assay: as above; settings: 72 h
[9] = tested on: normal primary NK cells, pool 1 (3 donors) (IL-2 2.5 ng/mL); assay: as above; settings: 72 h
[10] = tested on: NKL (IL-2 2.5 ng/mL); assay: as above; settings: 72 h
[11] = tested on: normal primary NK cells, pool 1 (3 donors), resting (IL-2 0 ng/mL); assay: as above; settings: 72 h
[12] = tested on: IMC-1 (IL-2 20 ng/mL); assay: as above; settings: 72 h
[13] = tested on: normal primary NK cells, pool 2 (3 donors) (IL-2 2.5 ng/mL); assay: as above; settings: 72 h
[14] = tested on: normal NK cells expanded with K562-aAPC; assay: as above; settings: 72 h, IL-2 2.5 ng/mL
Experimental: (§1)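 Drug sensitivity and resistance testing on K562-aAPC-expanded normal NK cells: 5 concentrations (10-fold steps over a 10,000-fold range), 72 h at 37 °C, viability by CellTiter-Glo normalised to DMSO and benzethonium chloride controls; DSS from the fitted curve.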

[15] = tested on: YT (IL-2 2.5 ng/mL); assay: drug sensitivity score (DSS) (DSS units); higher = more sensitive; extreme values may be limits of the assay; settings: 72 h
[16] = tested on: NK-YS (IL-2 2.5 ng/mL); assay: as above; settings: 72 h
[17] = tested on: KHYG-1 (IL-2 2.5 ng/mL); assay: as above; settings: 72 h
[18] = tested on: KAI3 (IL-2 2.5 ng/mL); assay: as above; settings: 72 h
[19] = tested on: normal primary NK cells, pool 3 (3 donors) (IL-2 2.5 ng/mL); assay: as above; settings: 72 h
[20] = tested on: NK-92 (IL-2 2.5 ng/mL); assay: as above; settings: 72 h
[21] = tested on: SNK-6 (IL-2 2.5 ng/mL); assay: as above; settings: 72 h
[22] = tested on: DERL-7 (IL-2 2.5 ng/mL); assay: as above; settings: 72 h
[23] = tested on: normal primary NK cells, pool 1 (3 donors) (IL-2 2.5 ng/mL); assay: as above; settings: 72 h
[24] = tested on: NKL (IL-2 2.5 ng/mL); assay: as above; settings: 72 h
[25] = tested on: normal primary NK cells, pool 1 (3 donors), resting (IL-2 0 ng/mL); assay: as above; settings: 72 h
[26] = tested on: IMC-1 (IL-2 20 ng/mL); assay: as above; settings: 72 h
[27] = tested on: normal primary NK cells, pool 2 (3 donors) (IL-2 2.5 ng/mL); assay: as above; settings: 72 h
[28] = tested on: normal NK cells expanded with K562-aAPC; assay: as above; settings: 72 h; IL-2 2.5 ng/mL
Experimental: as §1

COc1ccc(-c2ccc3ncc4c(c3c2)n(-c2ccc(N3CCNCC3)c(C(F)(F)F)c2)c(=O)n4C)cn1 [NVP-BGT226] (max concentration tested 1000 nM)
percent inhibition of viability [%]
Settings | 0.1 nM | 1 nM | 10 nM | 100 nM | 1000 nM
[1] | -4.65 | -0.4 | 10.2 | 53.6 | 74.2
[2] | -4.92 | -1.99 | 27.6 | 76.4 | 95.7
[3] | -2.44 | 1.07 | 4.41 | 76.8 | 95.9
[4] | -0.77 | 1.29 | 25.3 | 57.2 | 94.7
[5] | -7.84 | -7.37 | 7.07 | 21.4 | 98.8
[6] | -5 | -4.68 | 24.6 | 74.2 | 96.2
[7] | 8.89 | 4.85 | 13.6 | 64.3 | 98.2
[8] | -4.47 | 7.95 | 55.7 | 89 | 99.7
[9] | -4.63 | -3.38 | 9.25 | 46.3 | 99
[10] | -10.6 | -18.4 | 35.3 | 51.1 | 93.4
[11] | 5.35 | -4.97 | 14.6 | 59.2 | 99
[12] | -2.15 | -4.82 | -34.6 | 55.1 | 97.2
[13] | -6.87 | 0.35 | 13.2 | 39 | 99.7
[14] | -0.83 | 1.88 | 18.5 | 46.3 | 99.4

Settings | drug sensitivity score
[15] | 11.3
[16] | 17.5
[17] | 14.8
[18] | 14.1
[19] | 8.86
[20] | 16.7
[21] | 14.1
[22] | 24
[23] | 10.9
[24] | 13.7
[25] | 13.2
[26] | 11.9
[27] | 9.95
[28] | 11.6

CO[C@@H]1[C@H](N(C)C(=O)c2ccccc2)C[C@H]2O[C@]1(C)n1c3ccccc3c3c4c(c5c6ccccc6n2c5c31)C(=O)NC4 [Midostaurin] (max concentration tested 10000 nM)
percent inhibition of viability [%]
Settings | 1 nM | 10 nM | 100 nM | 1000 nM | 10000 nM
[1] | 4.08 | 0.3 | 9.56 | 51.4 | 69.3
[2] | 1.77 | 2.14 | 11.2 | 65.2 | 78.6
[3] | 2.07 | -3.07 | 17 | 105 | 99.1
[4] | 0.66 | 3.14 | 21.1 | 89.4 | 91.2
[5] | -7.31 | -6.65 | 1.51 | 63.5 | 83
[6] | 7.3 | 4.05 | 7.33 | 80.9 | 89.5
[7] | -0.77 | 8.75 | 42.7 | 95.2 | 97.3
[8] | 2.78 | 1.24 | 18.5 | 93.3 | 98.4
[9] | -13 | -12.2 | 25.8 | 79.6 | 88.2
[10] | -4.72 | -9.81 | 28.3 | 79.7 | 77.5
[11] | -2.01 | -12 | 7.17 | 29 | 62.3
[12] | -6.1 | -6.16 | -11.8 | 87.9 | 100
[13] | -14.8 | -10.1 | -0.23 | 76.7 | 85.8
[14] | -0.81 | -0.07 | 14.2 | 93.4 | 95.7

Settings | drug sensitivity score
[15] | 10.8
[16] | 13.5
[17] | 20.9
[18] | 19.3
[19] | 12.1
[20] | 15.8
[21] | 22.2
[22] | 19.5
[23] | 18
[24] | 18.5
[25] | 6.7
[26] | 15.6
[27] | 14
[28] | 19.3

CCNC(=O)CCC/C=C\C[C@@H]1[C@@H](/C=C/[C@@H](O)CCc2ccccc2)[C@H](O)C[C@@H]1O [Bimatoprost] (max concentration tested 5500 nM)
percent inhibition of viability [%]
Settings | 0.55 nM | 5.5 nM | 55 nM | 550 nM | 5500 nM
[1] | -1.68 | -3.7 | -5.41 | -3.35 | -5.44
[2] | -3.18 | -8.08 | -6.49 | -9.97 | -6.34
[3] | -6.16 | -6.81 | -5.76 | -5.66 | -2.75
[4] | -9.15 | -10.1 | -8.67 | -6.35 | -7.76
[5] | -15.9 | -13.5 | -18 | -10.8 | -6.94
[6] | -8.7 | -4.9 | -11.6 | -5.65 | -8.03
[7] | 17.6 | 0.29 | 2.65 | -15.2 | -3.36
[8] | -5.3 | -2.53 | -3.35 | -10.4 | -4.94
[9] | -4.1 | -2.93 | -7.66 | 5.27 | 3.45
[10] | -10.6 | -7.92 | -13.9 | -14.1 | 7.05
[11] | 5.81 | -2 | -9.81 | 4.1 | 6.67
[12] | -1.84 | -3.91 | -0.72 | -4.98 | -0.62
[13] | -11.3 | -11.2 | -11.5 | -10.1 | -6.11
[14] | -0.32 | -7.8 | -7.43 | -6.39 | -7.75

Settings | drug sensitivity score
[15] | 0.89
[16] | 0.89
[17] | 0.89
[18] | 0.89
[19] | 0.89
[20] | 0.89
[21] | 0
[22] | 0.89
[23] | 0
[24] | 0
[25] | 0
[26] | 0.89
[27] | 0.89
[28] | 0.89

O=C(O)c1ccc2c(c1)nc(Nc1cccc(Cl)c1)c1ccncc12 [Silmitasertib] (max concentration tested 10000 nM)
percent inhibition of viability [%]
Settings | 1 nM | 10 nM | 100 nM | 1000 nM | 10000 nM
[1] | 5.21 | 5.15 | 4.79 | 17.7 | 79.9
[2] | 5.01 | 1.7 | 1.66 | 10.8 | 88.7
[3] | 2.32 | 3.89 | 1.97 | 14.4 | 98.1
[4] | 4.28 | 8.25 | 8.8 | 16.1 | 84.8
[5] | -4.66 | -2.89 | -4.84 | 9.91 | 70.3
[6] | 6.03 | 10.9 | -12.3 | -16.9 | 90.2
[7] | 4.5 | 3.13 | -1.8 | -10.8 | 85.2
[8] | -3.79 | 0.67 | -2.32 | 10.4 | 96
[9] | -9.41 | -7.07 | -7.39 | 18.1 | 85.6
[10] | 11.5 | 10.7 | 2.41 | 13.4 | 76.3
[11] | -25.1 | -31.8 | -43.9 | -9.05 | 63.9
[12] | 7.09 | 6.12 | 5.81 | -2.16 | 48.4
[13] | -8.83 | -6.36 | 2.09 | 8.72 | 76.5
[14] | 6.72 | 1.13 | 2.51 | 24.6 | 85.7

Settings | drug sensitivity score
[15] | 7.24
[16] | 6.72
[17] | 7.83
[18] | 7.33
[19] | 5.54
[20] | 4.09
[21] | 4.04
[22] | 7.04
[23] | 7.64
[24] | 6.45
[25] | 2.91
[26] | 2.35
[27] | 5.68
[28] | 8.41

COc1cc2ncnc(Nc3ccc(F)c(Cl)c3)c2cc1NC(=O)/C=C/CN1CCCCC1 [Dacomitinib] (max concentration tested 1000 nM)
percent inhibition of viability [%]
Settings | 0.1 nM | 1 nM | 10 nM | 100 nM | 1000 nM
[1] | 5.15 | 4.77 | 7.83 | 2.51 | 14.2
[2] | 7.35 | 1.97 | 10.7 | 6.81 | 23.5
[3] | 10.5 | 10.2 | 7.74 | 5.43 | 16.9
[4] | 7.94 | 10.2 | 11.4 | 7.46 | 31.4
[5] | 0.64 | 1.31 | -1.6 | -10.6 | 17.6
[6] | 14.8 | 4.75 | 15.7 | -7.18 | 27.1
[7] | 6.36 | -3.37 | 6.76 | 1.63 | 22.4
[8] | -5.58 | -2.85 | -0.73 | -3.8 | 35.9
[9] | 2.94 | -9.71 | -7.32 | -13.9 | 28.8
[10] | 3.41 | 22.9 | 21.4 | 24.5 | 43.9
[11] | 4.51 | -7.96 | 0.41 | -14.9 | 59.7
[12] | 9.55 | 7.6 | 11.6 | 10.1 | 13.4
[13] | -2.98 | -1.98 | 1.99 | -4.15 | 33
[14] | 4.92 | 5.66 | 5.66 | 10.2 | 29.5

Settings | drug sensitivity score
[15] | 0
[16] | 1.38
[17] | 0
[18] | 2.88
[19] | 0.2
[20] | 0.79
[21] | 0.98
[22] | 1.45
[23] | 0.77
[24] | 8.95
[25] | 2.49
[26] | 0.74
[27] | 1.25
[28] | 2.02
